Patent US12692396B2, “Fluorescent labeling agent and fluorescent dye” (artience Co., Ltd., priority 2020, dated 2026)

How the values were obtained:
[1] = test system: Human epithelium cancer cells A431; test: Evaluation of visibility of cell (fluorescent microscope); type: cell-based; parameters: key: P (Pass): Clear; F (Failure): Unclear
Experimental: <Evaluation of Visibility of Cell>
(§1) Human epithelium cancer cells A431 were seeded in a 96-well plate (1×10^4 cells/well). The A431 were cultured for 24 hours using an RPMI 1640 medium to which 10% fetal bovine serum (FBS) and 1% penicillin-streptomycin had been added in an incubator (37° C., 5% CO2-containing Air, humidified environment).
After cultivation, the medium was removed, and the fluorescent labeling agents prepared in Examples 127 to 189 and Comparative Examples 25 to 37 were added thereto and left to stand in the incubator for one hour. Next, these were washed in the RPMI 1640 medium. The dark field images and fluorescent images of the cells were observed using a fluorescent microscope (manufactured by Keyence Corporation, BZ-X800) equipped with an excitation filter for an appropriate wavelength and a fluorescent filter and evaluated based on the following standards.
• P (Pass): Clear • F (Failure): Unclear
The evaluation results of the visibility of the cells labeled with the fluorescent labeling agents 1, 15, 19, 24, 25, 68, and 75 are sequentially shown in FIGS. 2 to 8 (magnification: 10 times, optical uptake time: 1 second).
The evaluation results of the visibility of the cells labeled with the fluorescent labeling agents 42 and 53 are sequentially shown in FIGS. 9 to 10 (magnification: 40 times, optical uptake time: 1 second).
From what has been described above, it has been clarified that the fluorescent labeling agent according to the embodiment of the present invention has excellent characteristics as a fluorescent labeling agent.

[2] = test system: Human epithelium cancer cells A431; test: Evaluation of cell toxicity of fluorescent labeling agent (cell counting kit-8, absorbance at 450 nm); type: cell-based
Experimental: <Evaluation of Cell Toxicity of Fluorescent Labeling Agent>
as §1, with “Next, the” for “The”, “environment). As the RPMI 1640 medium, an RPMI-164-Medium manufactured by Sigma-Aldrich Inc. was used.” for “environment).”
After cultivation, the medium was removed, the fluorescent labeling agents prepared in Examples 83 to 123 and Comparative Examples 25 to 37 and an RPMI 1640 medium containing 1% dimethyl sulfoxide (DMSO medium solution) were added thereto. These were left to stand in the incubator for one hour and then washed in the RPMI 1640 medium. 10 μL of a cell counting kit-8 (manufactured by Dojindo Laboratories.) was added to each well and left to stand in the incubator (37° C., 5% CO2-containing Air, humidified environment) for one hour. Next, the absorbance at 450 nm was measured using a plate reader (SPARK, manufactured by Tecan Trading AG).
The relative value of the absorbance of each fluorescent labeling agent when the absorbance of the well to which the DMSO medium solution had been added was regarded as one was calculated and evaluated based on the following standards. […] At the time of calculating the relative value of the absorbance of the fluorescent labeling agent, a value obtained by subtracting the absorbance before the addition of the cell counting kit-8 (manufactured by Dojindo Laboratories.) from the measured absorbance was used.
• P (Pass): 0.8 or more • F (Failure): Less than 0.8 <Evaluation of Fluorescence Intensity of Fluorescent Labeling Agent>

phospholipids = test: Evaluation of property of fluorescent dye being accumulated in phospholipids (labeling agent intensity / dye solution intensity); type: cell-based, Human; details: A431 cells, one hour; relative value, comparative compound 12 regarded as one; fluorescent wavelength range as in Table 22 (780-800 nm, 630-650 nm in last line)
Experimental: <Evaluation of Property of Fluorescent Dye being Accumulated in Phospholipids>
The property of each dye being accumulated in phospholipids was calculated from the fluorescence intensity integral value obtained from the fluorescent spectrum of the dye solution and the fluorescence intensity obtained from the fluorescence intensity of the fluorescent labeling agent using an expression (1). The relative value of the property of each fluorescent labeling agent being accumulated in phospholipids when the property of the comparative compound 12 being accumulated in phospholipids was regarded as one was calculated and evaluated based on the following standards. In a case where the relative value is evaluated as 3 or more, it can be said that each fluorescent dye has a favorable property of being accumulated in phospholipids.
• 4: The property of being accumulated in phospholipids is 4 or more. • 3: The property of being accumulated in phospholipids is 2 or more and less than 4. • 2: The property of being accumulated in phospholipids is 1 or more and less than 2. • 1: The property of being accumulated in phospholipids is less than 1. Property of being accumulated in phospholipids=fluorescence intensity of fluorescent labeling agent/fluorescence intensity of dye solution (1)

[3] = A431 cells, labeling agent left one hour
[4] = labeling agent left one hour, absorbance relative to DMSO medium solution regarded as one
[5] = A431 cells labeled for one hour, Clear/Unclear
[6] = cell counting kit-8, absorbance at 450 nm, pass/fail grade

| SMILES | Cell toxicity [2, 4] | Cell visibility [1, 5] | Cell toxicity [2, 6] | also measured |
| --- | --- | --- | --- | --- |
| CCOc1cccc2c1C1=NC2=Nc2c3c(OCC)cccc3c3[n]2[Al]([O]P(=O)(CCC(=O)O)Oc2ccccc2)[n]2c(c4cccc(OCC)c4c2=NC2=NC(=N3)c3c(OCC)cccc32)=N1 (centres unmarked) [Fluorescent dye 18] | P (P (Pass): 0.8 or more) | – | – | Cell visibility [1, 3]: P; Property of being accumulated in phospholipids (phospholipids): 4 (4: The property of being accumulated in phospholipids is 4 or more.) |
| C[Si](C)(CCCN)[O][Al]1[n]2c3c4cc(C5CCCCC5)c(C5CCCCC5)cc4c2N=C2N=C(N=c4c5cc(C6CCCCC6)c(C6CCCCC6)cc5c([n]41)=NC1=NC(=N3)c3cc(C4CCCCC4)c(C4CCCCC4)cc31)c1cc(C3CCCCC3)c(C3CCCCC3)cc12 [Fluorescent dye 3] | P (P (Pass): 0.8 or more) | – | – | – |
| CCOc1cccc2c1C1=NC2=Nc2c3c(OCC)cccc3c3[n]2[Al]([O]C(=O)c2ccc(C(=O)O)cc2)[n]2c(c4cccc(OCC)c4c2=NC2=NC(=N3)c3c(OCC)cccc32)=N1 [Fluorescent dye 11] | P (P (Pass): 0.8 or more) | – | – | – |
| CC1=CC(C)=[N+]2C1Cc1ccc(CCC(=O)NCCCN(C)C)n1[B-]2(F)F (centres unmarked) [Fluorescent dye 41] | – | P | P (P (Pass): 0.8 or more) | – |
| CC(C)C(Oc1cccc2c1C1=NC2=Nc2c3c(OC(C(C)C)C(C)C)cccc3c3[n]2[Al]([O]S(=O)(=O)CCCOCCC(=O)O)[n]2c(c4cccc(OC(C(C)C)C(C)C)c4c2=NC2=NC(=N3)c3c(OC(C(C)C)C(C)C)cccc32)=N1)C(C)C [Fluorescent dye 12] | P (P (Pass): 0.8 or more) | – | – | – |
| C[Si](C)(CCC[N+](c1ccccc1)(c1ccccc1)c1ccccc1)[O][Al]1[n]2c3c4cc(C5CCCCC5)c(C5CCCCC5)cc4c2N=C2N=C(N=c4c5cc(C6CCCCC6)c(C6CCCCC6)cc5c([n]41)=NC1=NC(=N3)c3cc(C4CCCCC4)c(C4CCCCC4)cc31)c1cc(C3CCCCC3)c(C3CCCCC3)cc12.[I-] [Fluorescent dye 21] | P (P (Pass): 0.8 or more) | – | – | Cell visibility [1, 3]: P; Property of being accumulated in phospholipids (phospholipids): 4 (4: The property of being accumulated in phospholipids is 4 or more.) |
| CCOc1cccc2c1C1=Nc3c4cccc(OCC)c4c4[n]3[Al-2]35([O]S(=O)(=O)c6ccc(O)cc6)[n]6c(c7cccc(OCC)c7c6=NC2=[N+]13)=NC1=[N+]5C(=N4)c2cccc(OCC)c21 [Fluorescent dye 55] | – | P | P (P (Pass): 0.8 or more) | – |
| CCOc1cccc2c1C1=NC2=Nc2c3c(OCC)cccc3c3n2[Si](O)(OP(=O)(CCC(=O)O)c2ccccc2)n2c(c4cccc(OCC)c4c2=NC2=NC(=N3)c3c(OCC)cccc32)=N1 (centres unmarked) [Fluorescent dye 16] | P (P (Pass): 0.8 or more) | – | – | Cell visibility [1, 3]: P; Property of being accumulated in phospholipids (phospholipids): 4 (4: The property of being accumulated in phospholipids is 4 or more.) |
| CN1/C(=C/C=C/C=C/C2=[N+](CCCCCC(=O)NCCCO)c3ccccc3C2(C)C)C(C)(C)c2ccccc21 [Fluorescent dye 62] | – | P | P (P (Pass): 0.8 or more) | – |
| CCOc1cccc2c1C1=NC2=Nc2c3c(OCC)cccc3c3[n]2[Al]([O]C(=O)CCCN)[n]2c(c4cccc(OCC)c4c2=NC2=NC(=N3)c3c(OCC)cccc32)=N1 [Fluorescent dye 10] | P (P (Pass): 0.8 or more) | – | – | – |
| CCOc1cccc2c1C1=NC2=Nc2c3c(OCC)cccc3c3n2[Si](O)(O[Si](C)(C)CCCN)n2c(c4cccc(OCC)c4c2=NC2=NC(=N3)c3c(OCC)cccc32)=N1 (centres unmarked) [Fluorescent dye 5] | P (P (Pass): 0.8 or more) | – | – | – |
| CCOc1cccc2c1C1=Nc3c4cccc(OCC)c4c4[n]3[Zn][n]3c(c5cccc(OCC)c5c3=NC2=N1)=NC1=NC(=N4)c2ccc(OS(=O)(=O)c3ccc(CCCN)cc3)cc21 [Fluorescent dye 37] | – | P | P (P (Pass): 0.8 or more) | – |
| CCCCCCCCCCCCCCCCCCc1ccc2c(c1)C1=NC2=Nc2c3cc(CCCCCCCCCCCCCCCCCC)ccc3c3[n]2[Al]([O]S(=O)(=O)c2ccc(CCN)cc2)[n]2c(c4ccc(CCCCCCCCCCCCCCCCCC)cc4c2=NC2=NC(=N3)c3cc(CCCCCCCCCCCCCCCCCC)ccc32)=N1 [Fluorescent dye 8] | P (P (Pass): 0.8 or more) | – | – | – |
| CC(C)(C)c1ccc2c(c1)C1=NC2=Nc2c3cc(C(C)(C)C)ccc3c3[n]2[Al]([O]S(=O)(=O)c2ccc(CCN)cc2)[n]2c(c4ccc(C(C)(C)C)cc4c2=NC2=NC(=N3)c3cc(C(C)(C)C)ccc32)=N1 [Fluorescent dye 9] | P (P (Pass): 0.8 or more) | – | – | – |
| O=C(O)CCCN1C(=O)C2=C(c3ccccc3)NC(=O)C2=C1c1ccccc1 [Fluorescent dye 38] | – | P | P (P (Pass): 0.8 or more) | – |
| O=C1NC(c2ccccc2)=C2C(=O)N(CCCP(=O)(O)O)C(c3ccccc3)=C12 [Fluorescent dye 60] | – | P | P (P (Pass): 0.8 or more) | – |
| CN(C)CCCNC(=O)c1ccc(C(=O)O)c(-c2c3ccc(=O)cc-3oc3cc(O)ccc23)c1 [Fluorescent dye 39] | – | P | P (P (Pass): 0.8 or more) | – |
| CCOc1cccc2c1C1=Nc3c4cccc(OCC)c4c4[n]3[Al-2]35([O][PH](=O)CCCO)[n]6c(c7cccc(OCC)c7c6=NC2=[N+]13)=NC1=[N+]5C(=N4)c2cccc(OCC)c21 (centres unmarked) [Fluorescent dye 54] | – | P | P (P (Pass): 0.8 or more) | – |
| CCOc1cccc2c1C1=Nc3c4cccc(OCC)c4c4[n]3[Mg][n]3c(c5cccc(OCC)c5c3=NC2=N1)=NC1=NC(=N4)c2ccc(OS(=O)(=O)c3ccc(CCCN)cc3)cc21 [Fluorescent dye 36] | – | P | P (P (Pass): 0.8 or more) | – |
| C[Si](C)(CCCN)[O][Al]1[n]2c3c4cccc(Sc5ccccc5)c4c2N=C2N=C(N=c4c5cccc(Sc6ccccc6)c5c([n]41)=NC1=NC(=N3)c3c(Sc4ccccc4)cccc31)c1c(Sc3ccccc3)cccc12 [Fluorescent dye 4] | P (P (Pass): 0.8 or more) | – | – | – |
| NCCc1ccc(S(=O)(=O)[O][Al]2[n]3c4c5cc(C(F)(F)F)ccc5c3N=C3N=C(N=c5c6cc(C(F)(F)F)ccc6c([n]52)=NC2=NC(=N4)c4ccc(C(F)(F)F)cc42)c2ccc(C(F)(F)F)cc23)cc1 [Fluorescent dye 7] | P (P (Pass): 0.8 or more) | – | – | – |
| CCN(CC)c1ccc2c(-c3ccccc3C(=O)NCCCN(C)C)c3ccc(=[N+](CC)CC)cc-3oc2c1.[Cl-] [Fluorescent dye 40] | – | P | P (P (Pass): 0.8 or more) | – |
| CCOc1cccc2c1C1=NC2=Nc2c3c(OCC)cccc3c3[n]2[Al]([O]S(=O)(=O)c2ccc(CCN)cc2)[n]2c(c4cccc(OCC)c4c2=NC2=NC(=N3)c3c(OCC)cccc32)=N1 [Fluorescent dye 6] | P (P (Pass): 0.8 or more) | – | – | – |
| CC1=CC(C)=[N+]2C1=Cc1ccc(CCC(=O)NCCCO)n1[B-]2(F)F [Fluorescent dye 63] | – | P | P (P (Pass): 0.8 or more) | – |
